Earlier results on 1 compound are cited in patent US20210069174A1, “COMPOSITIONS AND METHODS FOR TREATMENT OF CYSTIC FIBROSIS” (Vertex Pharmaceuticals Incorporated, priority 2017, published 2021).

SMILES strings stand for the structures. A value given as a limit tells only on which side of the number the result lay.

The data set relates to CFTR. Particulars: CFTR modulator; disclosed in PCT Publication No. WO 2016/057572.

With `CC(C)COc1cc(F)cc(-c2ccc(C(=O)NS(=O)(=O)c3ccccc3)c(N3C[C@@H](C)CC3(C)C)n2)c1` [Compound I, N-(benzenesulfonyl)-6-(3-fluoro-5-isobutoxy-phenyl)-2-[(4S)-2,2,4-trimethylpyrrolidin-1-yl]pyridine-3-carboxamide], the EC30 was less than 3 µM.
